The inhibition is the drop in the measured response relative to a control, in per cent. A low value points to a response near the control. In general, IC50 refers to the point on the concentration scale where inhibition reaches its midpoint. A low value points to greater potency in that assay.

SMILES strings stand for the structures.

The subject of one test is SAP-deficient T cells. Kind of test: RICD assay in SAP silenced T cells. The following applies: 10 µM, 30 min pre-treatment, OKT3 10 ng/mL, 24 h; for rescue of RICD (apoptosis) in SAP-deficient T cells: SAP siRNA. It is filed as cell-based, human. Here is the method: PBL were isolated from healthy anonymous human donors by Ficoll-Paque PLUS (GE Healthcare, Chicago, IL) density gradient centrifugation, washed, and resuspended at 2 × 10^6 cell/mL in RPMI-GlutaMAX containing 10% heat inactivated FCS, 2 mM glutamine, and 100 U/mL of penicillin and streptomycin. T cells were activated with 1 µg/mL anti-CD3 (UCHT1) and anti-CD28 (clone CD28.2) antibodies. After three days, activated T cells were washed and cultured in medium additionated of 100 IU/mL rhIL-2 (Peprotech, Rocky Hill, NJ) at 1.2 × 10^6 cells/mL for ≥7 days by changing media for every 2–3 days.
Activated human PBLs were transfected with 200 pmol of siRNA oligonucleotides specific for the target protein (Stealth Select siRNA; Life Technologies, Carlsbad, CA) or a non-specific control oligo (Life Technologies, Carlsbad, CA). Transient transfections were performed using Amaxa nucleofector kits for human T cells (Lonza, Basel, Switzerland) and the Amaxa Nucleofector II or 4D systems (programmes T-20 or EI-115). Cells were cultured in IL-2 (100 IU/mL) for four days to allow target gene knockdown. Knockdown efficiency was periodically evaluated by Western blotting.
To test restimulation induced cell death, activated T cells (10^5 cells/well) were plated in triplicate in 96-well round-bottom plate and treated with anti-CD3 (clone OKT3) (10 ng/mL) in RPMI-GlutaMAX supplemented with 100 IU/mL rhIL-2 for 24 h. In these assays, inhibitors (10 µM) were added 30 min before the restimulation with OKT3. 24 h after treatment, cells were stained with 20 ng/mL propidium iodide and collected for a constant time of 30 s per sample on Attune Nxt Flow Cytometer (Thermo Fisher Scientific, Waltham, MA). Cell death is expressed as % cell loss and calculated as: % cell loss=(1−(number of viable cells in sample/number of viable cells in control)×100)
Results were expressed as mean ± standard error of the mean (SEM). We always compared controls and SAP silenced lymphocytes from the same donors as there is a large individual variability in RICD sensitivity.
To evaluate inhibitor efficacy in physiological context, we modelled XLP-1 by silencing SAP in primary peripheral blood T lymphocytes (PBLs) and restimulating them with anti-CD3 antibody (OKT3 10 ng/mL, 24 h). We pre-treated the cells with the indicated inhibitors for 30 min at a concentration of 10 µM[8].
Figure 9. DGKα inhibitors partially restores apoptosis in SAP deficient lymphocytes. […] After 4 days, the cells were restimulated with CD3 agonist OKT3 (10 ng/mL) in presence of respective inhibitor. Vehicle (DMSO) was used as control. Twenty-four hours later, the % of cell loss was evaluated by PI staining. Data are the mean ± SEM of nine independent experiments performed in triplicate.

Another test addresses DGKα (Homo sapiens, UniProt P23743). Kind of test: DGK assay on OST-DGKα enriched MDCK homogenates. Type of test: biochemical. Further details: expressed in transfected cells; host or cells: MDCK cells (vector-infected, doxycycline-induced), crude homogenate. The following applies: for remaining activity at 100 µM: percentage of residual DGKα activity compared to DMSO control, OST-DGKα overexpressing cell lysates, saturating DAG and ATP, read-out: Residue activity at 100 µM; for IC50: residual OST-DGKα activity at 0.1, 1.0, 10.0 and 100.0 µM. On the procedure:
Madin-Darby canine kidney (MDCK) cells stably expressing One Strep Tag DGKα (OST-DGKα) were prepared by infecting MDCK cells with a vector expressing an inducible OST tagged DGKα constructs. MDCK cells infected with empty vector were used as controls. MDCK cells were cultured in MEM (minimal essential medium) with 5% FBS (foetal bovine serum) and 1% antibiotic–antimycotic solution. Routinely, cells were splitted every 3–4 days with trypsin–EDTA 0.25% in standard 100 mm dishes.
Large cultures of MDCK cells for enzyme preparation were done by plating 5 × 10^6 cells in 245 mm^2 dishes. Once they reached nearly 70% confluence, cells were treated with doxycycline (1 µg/mL, two days). […] Cells were collected with a rubber scraper, homogenised by passing them through a 29 G-needle syringe 20 times and stored in aliquots at –80 °C. Presence of OST-DGKα was confirmed by western blotting and enzyme assay, transduced DGKα has an activity >100 folds the endogenous DGK.
Essentionally, the same procedure was followed as reported previously in Velnati et al.[9] In brief, DGK activity was assayed by measuring initial velocities (5 min at 27 °C) in presence of saturating substrate concentrations. Reaction conditions: 0.9 µg/µL 1,2-dioleoyl-sn-glycerol, 5 mM ATP, 0.01 µCi/µL [γ^32P]-ATP, 1 mM sodium orthovanadate, 10 mM MgCl2, 1.2 mM EGTA in 7.5 mM Hepes pH 8[12]. Reaction mixture is assembled mixing enzyme (24.5 µL of homogenate), 100× inhibitor or DMSO (0.5 µL), 5× ATP solution (10 µL of 25 mM ATP, 0.05 µCi/µL [γ^32P]-ATP (Perkin-Elmer, Milan, Italy), 5 mM sodium orthovanadate, 50 mM MgCl2), and 3.3× DAG solution (15 µL of 3 µg/µL 1,2-dioleoyl-sn-glycerol resuspended by sonication in 4 mM EGTA in 25 mM Hepes pH 8). The reaction was stopped after 5 min by adding 200 µL of freshly prepared 1 M HCl and lipid was extracted by adding 200 µL of CH3OH:CHCl3 1:1 solution and vortexing for 1 min. The two phases were separated by centrifugation (12,000 RCF for 2 min). Twenty-five microlitres of the lower organic phase was spotted in small drops on silica TLC plates. TLC was run 10 cm and dried before radioactive signals were detected by GS-250 molecular imager and was quantified by quantity one (Bio-Rad, Hercules, CA) software assuring the absence of saturated spots.
Percentage residual activity was calculated as follows: (OST-DGKα homogenate with inhibitor – vector homogenate)/(OST-DGKα homogenate with DMSO – vector homogenate)×100.
Data for the screen on OST-DGKα homogenates are the mean of duplicates. The compounds showing inhibitory activity in this assay were tested >4 times and the mean ± SEM is reported.
To calculate IC50 values of active inhibitors, the inhibitor activity was measured at least three times at 0.1, 1.0, 10.0, and 100.0 µM concentration. Data were analysed using [inhibitor] vs. normalised response parameters with least square [ordinary] curve fitting method in GraphPad PRISM 8.0 software (GraphPad Software, La Jolla, CA) mentioning 95% confidence interval and IC50 values always greater than 0.0. […] In all the experiments, the data were normalised with the controls.
Each inhibitor was tested in duplicate at least once, and DGKα activity was expressed as percentage of residual DGKα activity compared to DMSO control in the same assay. Assay uses OST-DGKα overexpressing cell lysates in presence of saturating exogenous DAG and ATP. We considered R59022 (commercially available) and the lead compound Amb63975230 as our reference molecules.
To measure the inhibitor potency, we determined the IC50 values for the compounds that resulted active when tested at 100 µM by measuring the residual OST-DGKα activity over a dose range of inhibitor concentrations (0.1 µM, 1.0 µM, 10.0 µM, and 100.0 µM).

Chain of DGKα (P23743 whole entry): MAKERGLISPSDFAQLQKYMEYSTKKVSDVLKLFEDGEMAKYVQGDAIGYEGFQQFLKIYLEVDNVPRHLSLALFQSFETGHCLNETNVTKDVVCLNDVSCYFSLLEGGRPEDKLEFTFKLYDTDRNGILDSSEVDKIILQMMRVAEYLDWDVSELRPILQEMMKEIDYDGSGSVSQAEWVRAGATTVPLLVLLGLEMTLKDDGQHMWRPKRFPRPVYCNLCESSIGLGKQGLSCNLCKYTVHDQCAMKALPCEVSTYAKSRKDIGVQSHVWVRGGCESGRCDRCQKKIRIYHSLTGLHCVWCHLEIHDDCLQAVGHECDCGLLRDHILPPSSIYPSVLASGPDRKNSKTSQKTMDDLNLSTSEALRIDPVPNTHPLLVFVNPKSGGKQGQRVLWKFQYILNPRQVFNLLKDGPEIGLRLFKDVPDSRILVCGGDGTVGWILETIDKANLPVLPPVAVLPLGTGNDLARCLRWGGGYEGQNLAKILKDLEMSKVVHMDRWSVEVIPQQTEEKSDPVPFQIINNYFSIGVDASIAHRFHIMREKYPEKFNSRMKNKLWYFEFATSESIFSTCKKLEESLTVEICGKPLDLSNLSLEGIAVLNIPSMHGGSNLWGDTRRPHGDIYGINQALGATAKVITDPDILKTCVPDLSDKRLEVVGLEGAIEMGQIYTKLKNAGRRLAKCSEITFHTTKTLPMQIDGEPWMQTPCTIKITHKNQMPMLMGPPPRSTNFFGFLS

For the compound `Cc1ccc2c(C(=O)CN3CCN(C(=O)c4ccco4)CC3)c(C)[nH]c2c1` [Amb639752], in the test with SAP-deficient T cells, the “effect on RICD in control siRNA-transfected cells” value is “slightly reducing”. On DGKα (100 µM), the inhibition at 100 µM came out at 96% and the remaining activity at 100 µM came out at 4%. The same compound registered a concentration for half-maximal inhibition (IC50) on DGKα of 6.9 ± 3 µM.
Take `Cc1ccc2c(C(=O)CN3CCN(C(=O)c4ccc(Cl)cc4)CC3)c(C)[nH]c2c1` [Compound 11, 2-(4-(4-Chlorobenzoyl)piperazin-1-yl)-1-(2,6-dimethyl-1H-indol-3-yl)ethan-1-one]: in the test with SAP-deficient T cells, the “effect on RICD in control siRNA-transfected cells” value was “slightly reducing” and the “rescue of RICD (apoptosis) in SAP-deficient T cells” value is listed as “restore apoptosis”. The remaining activity at 100 µM at DGKα (100 µM) came to 6%. At DGKα, this compound registered an IC50 of 1.6 µM.
As to `Cc1ccc(C(=O)N2CCN(CC(=O)c3c(C)[nH]c4cc(C)ccc34)CC2)cc1` [Compound 20, 1-(2,6-Dimethyl-1H-indol-3-yl)-2-(4-(4-methylbenzoyl)piperazin-1-yl)ethan-1-one], in the test on SAP-deficient T cells, the “rescue of RICD (apoptosis) in SAP-deficient T cells” value is listed as “restore apoptosis”. Further, on DGKα (100 µM), the remaining activity at 100 µM came to 3%. This compound had an IC50 at DGKα of 1.8 µM.

Values taken from PMC6844378, “Structure activity relationship studies on Amb639752: toward the identification of a common pharmacophoric structure for DGKα inhibitors” (Journal of Enzyme Inhibition and Medicinal Chemistry, 2019).
